Values quoted from earlier work in US20140080711A1, “SUSPENSION OF PARTICLES COMPRISING CYCLOPROPENE COMPLEXES DISPERSED IN A RESIN MATRIX” (AgroFresh Inc., priority 2012, published 2014).

System: ethylene receptors

CC1=CC1 [Sample 1-MCP, 1-methylcyclopropene]
affinity for the receptor relative to that of ethylene: approximately 10 times
